The test system of data set [1] is patients with refractory CRS. As to the kind of experiment: Part I prospective study, Rhinotopic therapy spray: Lund-Kennedy scores, clinical course, side effects. The format is in vivo. An excerpt:
The first part is a prospective study that includes 20 patients with refractory CRS, treated in with Rhinotopic therapy spray at a tertiary rhinology fellowship-training program. The patients were placed on the rhinotopic protocol only after they failed extended standard medical therapy. The latter is defined, for the purpose of this study, as three or more repeated courses of different oral antibiotics along with nasal corticosteroids sprays and nasal saline rinses (each lasting at least 3 weeks), within a 6 month-period, along with oral corticosteroids when indicated (in case of significant polyposis or Samter's triad). Patients who failed extended medical therapy were given the option of revision sinus surgery or rhinotopic therapy; all 20 patients chose rhinotopic therapy and were consented accordingly. […]
CT scans were reviewed prior to treatment and evaluated following the Lund-Mackay radiologic scoring system (9). Clinical response to treatment was monitored using the Lund-Kennedy (LK) symptoms score and the LK endoscopic appearance score (9). […] The LK symptoms score evaluated nasal congestion and obstruction, headache, facial pain, alteration I the sense of smell, nasal discharge, and sneezing. The LK endoscopic appearance score evaluated the presence or absence of nasal polyps, edema, discharge, scarring, and crusting on each side of the nasal cavity. […]

For data set [2] the following is noted: prolonged intravenous use; cited from earlier work.

For `CN[C@H](CC(C)C)C(=O)N[C@H]1C(=O)N[C@@H](CC(N)=O)C(=O)N[C@H]2C(=O)N[C@H]3C(=O)N[C@H](C(=O)N[C@H](C(=O)O)c4cc(O)cc(O)c4-c4cc3ccc4O)[C@H](O)c3ccc(c(Cl)c3)Oc3cc2cc(c3O[C@@H]2O[C@H](CO)[C@@H](O)[C@H](O)[C@H]2O[C@H]2C[C@](C)(N)[C@H](O)[C@H](C)O2)Oc2ccc(cc2Cl)[C@H]1O` [Vancomycin], the “patients who developed an allergic reaction (skin rash over the upper lip)” value in data set [1] (nebulized, stopped the treatment and dropped out) was “One”. In addition, the side effects result in data set [2] was “toxicity to the kidneys and the inner ear”. For `CC(C)(O/N=C(\C(=O)N[C@@H]1C(=O)N2C(C(=O)[O-])=C(C[n+]3ccccc3)CS[C@H]12)c1csc(N)n1)C(=O)O` [ceftazidine], in data set [1] (intravenous, one patient, before the rhinotopic protocol), the clinical response entry is reported as “improved transiently but their symptoms recurred”.

The record behind these values is US20140336463A1, “Rhinotopic therapy for the treatment of chronic rhinosinusitis biofilm disruption, treatment of mucosal granulation and sinus polyps” (priority 2009, published 2014).
